US20190297888A1, “FUNGICIDAL COMPOUNDS AND MIXTURES FOR FUNGAL CONTROL IN CEREALS” (Dow AgroSciences LLC, priority 2016, published 2019)

Tests used:
Type in all cases: in vivo
[1] = system: Puccinia triticina (PUCCRT); assay: Field assessment of Compound I and fluxapyroxad on brown rust of wheat (AUDPC % control); conditions: AUDPC-based, 5 field trials
Source text: (§1) Treatments consisting of the compound of Formula I and fungicide compound fluxapyroxad against fungal diseases of wheat were applied either using individually or as a two-way mixture of fluxapyroxad with the compound of Formula I. The compound of Formula I was applied with Agnique BP-420 (50% w/w at 0.3% v/v) at 50, 75 and 100 g ai/ha and Imtrex (Fluxapyroxad 62.5 g/L) was applied at 50, 75 and 100 g ai/ha. Commercial standards used in the studies were Adexar (epoxiconazole+fluxapyroxad—125 g/L), applied at 1.2 and 1.6 L pr/ha, and Elatus Era (benzovindiflupyr+prothioconazole—225 g/L), applied at 1.0 L pr/ha.
Fungicidal treatments containing the compound of Formula I and fluxapyroxad, either individually or as a two-way mixture, were assessed against brown rust of wheat (PUCCRT) in five separate field trials. In all trials, fungicidal treatments were applied at B34-51 growth stages of winter wheat (TRZAW; ATOUDUR, MIRADOUX, IRIDIUM or MV Vanek variety) under natural infection of brown rust (protectant tests, approximately 0-8% infection on leaf 3 or 4 at application). All treatments were part of an experimental trial designed as a randomized complete block with four replications and plot sizes of approximately 2×2 m to 2×7.5 m. Fungicidal treatments were applied at a water volume of 200 L/ha, using a backpack plot sprayer (BKPKAIR or BKPCENG) with a FLATFAN or AIRASST Nozzle pressurized at 210-250 kPa.
(§2) Disease severity (percentage of visual diseased foliage on whole plot or leaves) in five field trials was recorded following EPPO PP1/26 guideline prescriptions. Area under the disease progress curve (AUDPC) was calculated for each plot in […] trials using the sets of recorded severity data. Relative AUDPC (% control based on AUDPC) was calculated as percent of the nontreated control. Final results for the control of brown rust of wheat by the compound of Formula I, fluxapyroxad and mixtures are reported as an average of the relative AUDPC calculated over all five field trials. Statistical analysis was done according to ANOVA and Tukey's test (p=0.10).

[2] = system: Puccinia striiformis (PUCCST); assay: Field assessment of Compound I and fluxapyroxad on yellow rust of wheat (AUDPC % control); conditions: AUDPC-based, 2 field trials
Source text: as §1
Fungicidal treatments containing the compound of Formula I and fluxapyroxad, either individually or as a two-way mixture, were assessed against yellow rust of wheat (PUCCST) in two separate field trials. In the first trial, fungicidal treatments were applied once at B37 (early curative, 6.5% infection at application on L3) growth stage of winter wheat (TRZAW, Fairplay variety). The treatments were part of an experimental trial designed as a randomized complete block with four replications and a plot of approximately 2×6 m. Treatments were applied at water volume of 200 L/ha, using a backpack plot sprayer (BKPCKAIR, FLATFANA nozzle) and pressurized at 300 kPa.
In the second trial, fungicidal treatments containing the compound of Formula I and fluxapyroxad, either individually or as a two-way mixture, were applied once at B33-37 (early curative, 0.5% infection on L2 at application) growth stages of wheat (TRZAW, SOLSTICE variety). The treatment was part of an experimental trial designed as a randomized complete block with four replications and a plot of approximately 1.5×14 m. Treatments were applied at water volume of 200 L/ha, using a backpack precision plot sprayer (BKCKAIR, FLAT FAN nozzle) and pressurized at 210 kPa.
as §2, with “both” for “five”, “yellow” for “brown”, “both” for “all five”

[3] = system: Puccinia triticina (PUCCRT); assay: Field assessment of Compound I and penthiopyrad on brown rust of wheat (AUDPC % control); conditions: AUDPC-based, 2 field trials
Source text: Treatments consisting of the compound of Formula I and fungicide compound penthiopyrad were applied either using individually or as a two-way mixture of penthiopyrad with the compound of Formula I. The compound of Formula I was applied with Agnique BP-420 (50% w/w at 0.3% v/v) at 75 and 150 g ai/ha and Penthiopyrad (Vertisan) was applied at 125 and 200 g ai/ha. Commercial standards used in the studies were Fluxapyroxad (Imtrex), applied at 100 g ai/ha, and Metconazole+Fluxapyroxad (Librax), applied at 161 g ai/ha.
Fungicidal treatments containing the compound of Formula I and penthiopyrad, either individually or as a two-way mixture, were assessed against brown rust of wheat (PUCCRT) in two separate field trials. In the first trial, fungicidal treatments were applied at B37-39 (protectant, approximately 0% infection at application) growth stages of wheat (TRZAW, MV Vanek variety) under natural infection of brown rust. The treatment was part of an experimental trial designed as a randomized complete block with four replications and a plot of approximately 2×3 m. Fungicidal treatments were applied at a water volume of 200 L/ha, using a backpack plot sprayer with a TEEJET QJ90-2XTT110 015 Nozzle.
In the second trial, fungicidal treatments containing the compound of Formula I and penthiopyrad, either individually or as a two-way mixture, were applied at B33 (curative, approximately 6.6% infection at application) growth stage of wheat (TRZAW, Miradoux variety) under natural infection of brown rust. The treatments were part of an experimental trial designed as a randomized complete block with four replications and a plot of approximately 2×3 m. Fungicidal treatments were applied at a water volume of 200 L/ha, using a backpack plot sprayer with a HARDI MD 110-02 Nozzle.
as §2, with “in both” for “in five”, “I, penthiopyrad” for “I, fluxapyroxad”, “all […]” for “all five”

| Structure (SMILES) | PUCCRT % Control ([1]; rate 50 g ai/ha) [%] | PUCCRT % Control ([1]; rate 75 g ai/ha) [%] | PUCCRT % Control ([1]; rate 100 g ai/ha) [%] | PUCCST % Control ([2]; rate 50 g ai/ha) [%] | PUCCST % Control ([2]; rate 75 g ai/ha) [%] | PUCCST % Control ([2]; rate 100 g ai/ha) [%] | PUCCRT % Control ([3]; rate 75 g ai/ha) [%] | PUCCRT % Control ([3]; rate 150 g ai/ha) [%] |
| --- | --- | --- | --- | --- | --- | --- | --- | --- |
| N#Cc1ccc(Oc2ccc(C(F)(F)C(O)(Cn3ncnc3S)c3ccc(F)cc3F)nc2)cc1 (centres unmarked) [Compound I, 4-((6-(2-(2,4-difluorophenyl)-1,1-difluoro-2-hydroxy-3-(5-mercapto-1H-1,2,4-triazol-1-yl)propyl)pyridin-3-yl)oxy)benzonitrile] | 86.0 | 90.0 | 93.4 | 80.0 | 93.3 | 98.0 | 93.5 | 94.6 |
| Cn1cc(C(=O)Nc2ccccc2-c2cc(F)c(F)c(F)c2)c(C(F)F)n1 [Fluxapyroxad, 3-(difluoromethyl)-1-methyl-N-(3′,4′,5′-trifluorobiphenyl-2-yl)pyrazole-4-carboxamide] | 84.0 | 94.0 | 95.3 | 74.1 | 69.0 | 79.4 |  |  |
